Source: patent US9695155B2, “Herbicidal substituted pyrimidinyloxy benzene compounds” (E. I. DU PONT DE NEMOURS AND COMPANY, priority 2013, dated 2017)

Columns and labels:
corn [1] = experiment: Test C preemergence; assay type: in vivo, Zea mays; details: for Corn plant response rating: preemergence; for Plant response rating, Corn: Preemergence, 31 g ai/ha, scale 0 to 100, 0 no effect, 100 complete control
Method in brief: (§1)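 Whole-plant greenhouse test with surfactant-containing solvent formulation, applied preemergence to sown loam–sand pots or postemergence to 2–18 cm plants. Scored by eye 13 to 15 days on, 0–100 scale.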

oilseed rape = experiment: Test C preemergence; assay type: in vivo, Brassica napus; details: for Oilseed Rape plant response rating: preemergence; for Plant response rating, Oilseed Rape: Preemergence, 31 g ai/ha, scale 0 to 100, 0 no effect, 100 complete control
Method in brief: as §1

barnyardgrass [2] = experiment: Test C postemergence; assay type: in vivo, Echinochloa crus-galli; details: for Barnyardgrass plant response rating: 16 g ai/ha; for Barnyardgrass plant response rating / Plant response rating, Barnyardgrass: scale 0 to 100 (0 no effect, 100 complete control)
Method in brief: as §1

waterhemp [3] = experiment: Test C preemergence; assay type: in vivo, Amaranthus rudis; details: for Waterhemp plant response rating: preemergence; for Plant response rating, Waterhemp: Preemergence, 31 g ai/ha, scale 0 to 100, 0 no effect, 100 complete control
Method in brief: as §1

pigweed = experiment: Test C postemergence; assay type: in vivo, Amaranthus retroflexus; details: for Plant response rating, Pigweed: scale 0 to 100 (0 no effect, 100 complete control)
Method in brief: as §1

barnyardgrass [4] = experiment: Test A preemergence; assay type: in vivo, Echinochloa crus-galli; details: for Plant response rating, Barnyardgrass: 125 g ai/ha, 0 to 100 scale where 0 is no effect and 100 is complete control; for Barnyardgrass plant response rating: 500 g ai/ha, 0 to 100 scale, 0 no effect, 100 complete control, approx. 10 days
Method in brief: (§2)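 Scoring: eye-based comparison with untreated controls, 0 for no effect through 100 for complete control, at about day 10. Treatments: directed soil spray preemergence; foliar spray postemergence on 2–10 cm plants at the one- to two-leaf stage. Medium: loam soil with sand.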

corn [5] = experiment: Test C postemergence; assay type: in vivo, Zea mays; details: for Corn plant response rating: 16 g ai/ha; for Corn plant response rating / Plant response rating, Corn: scale 0 to 100 (0 no effect, 100 complete control)
Method in brief: as §1

blackgrass [6] = experiment: Test C preemergence; assay type: in vivo, Alopecurus myosuroides; details: for Blackgrass plant response rating: preemergence; for Plant response rating, Blackgrass: Preemergence, 31 g ai/ha, scale 0 to 100, 0 no effect, 100 complete control
Method in brief: as §1

lambsquarters = experiment: Test C postemergence; assay type: in vivo, Chenopodium album; details: for Plant response rating, Lambsquarters: scale 0 to 100 (0 no effect, 100 complete control)
Method in brief: as §1

ragweed = experiment: Test C preemergence; assay type: in vivo, Ambrosia elatior; details: for Ragweed plant response rating: preemergence; for Plant response rating, Ragweed: Preemergence, 31 g ai/ha, scale 0 to 100, 0 no effect, 100 complete control
Method in brief: as §1

Italian ryegrass = experiment: Test C postemergence; assay type: in vivo, Lolium multiflorum; details: for Plant response rating, Ryegrass, Italian: scale 0 to 100 (0 no effect, 100 complete control)
Method in brief: as §1

waterhemp [7] = experiment: Test C postemergence; assay type: in vivo, Amaranthus rudis; details: for Plant response rating, Waterhemp: scale 0 to 100 (0 no effect, 100 complete control)
Method in brief: as §1

blackgrass [8] = experiment: Test C postemergence; assay type: in vivo, Alopecurus myosuroides; details: for Blackgrass plant response rating: 16 g ai/ha; for Blackgrass plant response rating / Plant response rating, Blackgrass: scale 0 to 100 (0 no effect, 100 complete control)
Method in brief: as §1

velvetleaf = experiment: Test A preemergence; assay type: in vivo, Abutilon theophrasti; details: 125 g ai/ha, 0 to 100 scale where 0 is no effect and 100 is complete control
Method in brief: as §2

soybean = experiment: Test C preemergence; assay type: in vivo, Glycine max; details: for Soybean plant response rating: preemergence; for Plant response rating, Soybean: Preemergence, 31 g ai/ha, scale 0 to 100, 0 no effect, 100 complete control
Method in brief: as §1

morningglory = experiment: Test C preemergence; assay type: in vivo, Ipomoea coccinea; details: for Morningglory plant response rating: preemergence; for Plant response rating, Morningglory: Preemergence, 31 g ai/ha, scale 0 to 100, 0 no effect, 100 complete control
Method in brief: as §1

barnyardgrass [9] = experiment: Test C preemergence; assay type: in vivo, Echinochloa crus-galli; details: for Barnyardgrass plant response rating: preemergence; for Plant response rating, Barnyardgrass: Preemergence, 31 g ai/ha, scale 0 to 100, 0 no effect, 100 complete control
Method in brief: as §1

giant foxtail = experiment: Test A preemergence; assay type: in vivo, Setaria faberii; details: for Plant response rating, Foxtail, Giant: 125 g ai/ha, 0 to 100 scale where 0 is no effect and 100 is complete control; for Foxtail, Giant plant response rating: 500 g ai/ha, 0 to 100 scale, 0 no effect, 100 complete control, approx. 10 days
Method in brief: as §2

[10] = 16 g ai/ha, scale 0 to 100 (0 no effect, 100 complete control)
[11] = 62 g ai/ha, scale 0 (no effect) to 100 (complete control)
[12] = 125 g ai/ha, scale 0 (no effect) to 100 (complete control)
[13] = postemergence, visual rating, 13 to 15 days
[14] = Postemergence, 31 g ai/ha, 13 to 15 days
[15] = 125 g ai/ha, postemergence, visual rating

In the case of `CCOc1cnn(-c2c(C#N)cccc2Oc2ncc(Cl)cn2)c1` [Compound 92], the “Corn plant response rating” value (corn [1]; [10]) is reported as 0, the “Corn plant response rating” value (corn [1]; [11]) is reported as 5 and the “Corn plant response rating” value (corn [1]; [12]) is reported as 65. The “Plant response rating, Corn” value (corn [1]) was 0, the “Oilseed Rape plant response rating” value (oilseed rape; [10]) was 80 and the “Oilseed Rape plant response rating” value (oilseed rape; [11]) was 85. The “Oilseed Rape plant response rating” value (oilseed rape; [12]) was 95, the “Plant response rating, Oilseed Rape” value (oilseed rape) was 80 and the “Barnyardgrass plant response rating” value (barnyardgrass [2]; [13]) was 5. For the same compound, the “Plant response rating (0 to 100), Barnyardgrass” value (barnyardgrass [2]; 125 g ai/ha, postemergence) was 10, the “Plant response rating, Barnyardgrass” value (barnyardgrass [2]; [14]) was 5 and the “Plant response rating, Barnyardgrass” value (barnyardgrass [2]; Postemergence, 62 g ai/ha) was 5. The “Waterhemp plant response rating” value (waterhemp [3]; [10]) was 95, the “Waterhemp plant response rating” value (waterhemp [3]; [11]) was 100 and the “Waterhemp plant response rating” value (waterhemp [3]; [12]) was 100. The “Plant response rating, Waterhemp” value (waterhemp [3]) was 98, the “Plant response rating (0 to 100), Pigweed” value (pigweed; 125 g ai/ha, postemergence) was 75 and the “Plant response rating, Pigweed” value (pigweed; [14]) was 60. For the same compound, the “Plant response rating, Pigweed” value (pigweed; Postemergence, 62 g ai/ha) was 55, the “Plant response rating, Barnyardgrass” value (barnyardgrass [4]) was 60 and the “Barnyardgrass plant response rating” value (barnyardgrass [4]) was 100. For the same compound, the “Corn plant response rating” value (corn [5]; [13]) was 5, the “Plant response rating (0 to 100), Corn” value (corn [5]; 125 g ai/ha, postemergence) was 5 and the “Plant response rating, Corn” value (corn [5]; [14]) was 5. For the same compound, the “Plant response rating, Corn” value (corn [5]; Postemergence, 62 g ai/ha) was 5, the “Blackgrass plant response rating” value (blackgrass [6]; [10]) was 0 and the “Blackgrass plant response rating” value (blackgrass [6]; [11]) was 70. For the same compound, the “Blackgrass plant response rating” value (blackgrass [6]; [12]) was 90, the “Plant response rating, Blackgrass” value (blackgrass [6]) was 5 and the “Plant response rating (0 to 100), Lambsquarters” value (lambsquarters; 125 g ai/ha, postemergence) was 75. The “Plant response rating, Lambsquarters” value (lambsquarters; [14]) was 35, the “Plant response rating, Lambsquarters” value (lambsquarters; Postemergence, 62 g ai/ha) was 40 and the “Ragweed plant response rating” value (ragweed; [10]) was 10. The “Ragweed plant response rating” value (ragweed; [11]) was 50, the “Ragweed plant response rating” value (ragweed; [12]) was 85 and the “Plant response rating, Ragweed” value (ragweed) was 5. For the same compound, the “Plant response rating (0 to 100), Ryegrass, Italian” value (Italian ryegrass; 125 g ai/ha, postemergence) was 35, the “Plant response rating, Ryegrass, Italian” value (Italian ryegrass; [14]) was 5 and the “Plant response rating, Ryegrass, Italian” value (Italian ryegrass; Postemergence, 62 g ai/ha) was 5. For the same compound, the “Plant response rating (0 to 100), Waterhemp” value (waterhemp [7]; 125 g ai/ha, postemergence) was 80, the “Plant response rating, Waterhemp” value (waterhemp [7]; [14]) was 45 and the “Plant response rating, Waterhemp” value (waterhemp [7]; Postemergence, 62 g ai/ha) was 75. For the same compound, the “Blackgrass plant response rating” value (blackgrass [8]; [13]) was 0, the “Plant response rating (0 to 100), Blackgrass” value (blackgrass [8]; 125 g ai/ha, postemergence) was 35 and the “Plant response rating, Blackgrass” value (blackgrass [8]; [14]) was 0. The “Plant response rating, Blackgrass” value (blackgrass [8]; Postemergence, 62 g ai/ha) was 10, the “Plant response rating, Velvetleaf” value (velvetleaf) was 100 and the “Soybean plant response rating” value (soybean; [10]) was 30. For the same compound, the “Soybean plant response rating” value (soybean; [11]) was 80, the “Soybean plant response rating” value (soybean; [12]) was 95 and the “Plant response rating, Soybean” value (soybean) was 65. For the same compound, the “Morningglory plant response rating” value (morningglory; [10]) was 10, the “Morningglory plant response rating” value (morningglory; [11]) was 98 and the “Morningglory plant response rating” value (morningglory; [12]) was 98. The “Plant response rating, Morningglory” value (morningglory) was 25, the “Barnyardgrass plant response rating” value (barnyardgrass [9]; [10]) was 5 and the “Barnyardgrass plant response rating” value (barnyardgrass [9]; [11]) was 100. For the same compound, the “Barnyardgrass plant response rating” value (barnyardgrass [9]; [12]) was 100, the “Plant response rating, Barnyardgrass” value (barnyardgrass [9]) was 75 and the “Plant response rating, Foxtail, Giant” value (giant foxtail) was 100. The “Foxtail, Giant plant response rating” value (giant foxtail) was 100.

For `N#Cc1cnn(-c2c(C#N)cccc2Oc2ncc(F)cn2)c1` [Compound 111], the “Corn plant response rating” value (corn [1]; [10]) was 5, the “Corn plant response rating” value (corn [1]; [11]) was 5 and the “Corn plant response rating” value (corn [1]; [12]) was 65. The “Plant response rating, Corn” value (corn [1]) was 5, the “Oilseed Rape plant response rating” value (oilseed rape; [10]) was 60 and the “Oilseed Rape plant response rating” value (oilseed rape; [11]) was 98. The “Oilseed Rape plant response rating” value (oilseed rape; [12]) was 100, the “Plant response rating, Oilseed Rape” value (oilseed rape) was 90 and the “Barnyardgrass plant response rating” value (barnyardgrass [2]; [13]) was 5. For the same compound, the “Plant response rating, Barnyardgrass” value (barnyardgrass [2]; [15]) was 35, the “Plant response rating, Barnyardgrass” value (barnyardgrass [2]; [14]) was 5 and the “Plant response rating, Barnyardgrass” value (barnyardgrass [2]; Postemergence, 62 g ai/ha) was 5. For the same compound, the “Waterhemp plant response rating” value (waterhemp [3]; [10]) was 100, the “Waterhemp plant response rating” value (waterhemp [3]; [11]) was 100 and the “Waterhemp plant response rating” value (waterhemp [3]; [12]) was 100. For the same compound, the “Plant response rating, Waterhemp” value (waterhemp [3]) was 100, the “Plant response rating, Pigweed” value (pigweed; [15]) was 85 and the “Plant response rating, Pigweed” value (pigweed; Postemergence, 62 g ai/ha) was 85. The “Plant response rating, Barnyardgrass” value (barnyardgrass [4]) was 90, the “Barnyardgrass plant response rating” value (barnyardgrass [4]) was 100 and the “Corn plant response rating” value (corn [5]; [13]) was 5. The “Plant response rating, Corn” value (corn [5]; [15]) was 15, the “Plant response rating, Corn” value (corn [5]; Postemergence, 62 g ai/ha) was 10 and the “Blackgrass plant response rating” value (blackgrass [6]; [10]) was 20. For the same compound, the “Blackgrass plant response rating” value (blackgrass [6]; [11]) was 40, the “Blackgrass plant response rating” value (blackgrass [6]; [12]) was 90 and the “Plant response rating, Blackgrass” value (blackgrass [6]) was 10. The “Plant response rating, Lambsquarters” value (lambsquarters; [15]) was 90, the “Plant response rating, Lambsquarters” value (lambsquarters; Postemergence, 62 g ai/ha) was 80 and the “Ragweed plant response rating” value (ragweed; [10]) was 10. For the same compound, the “Ragweed plant response rating” value (ragweed; [11]) was 100, the “Ragweed plant response rating” value (ragweed; [12]) was 100 and the “Plant response rating, Ragweed” value (ragweed) was 50. For the same compound, the “Plant response rating, Ryegrass, Italian” value (Italian ryegrass; [15]) was 0, the “Plant response rating, Ryegrass, Italian” value (Italian ryegrass; Postemergence, 62 g ai/ha) was 0 and the “Plant response rating, Waterhemp” value (waterhemp [7]; [15]) was 90. For the same compound, the “Plant response rating, Waterhemp” value (waterhemp [7]; Postemergence, 62 g ai/ha) was 80, the “Blackgrass plant response rating” value (blackgrass [8]; [13]) was 0 and the “Plant response rating, Blackgrass” value (blackgrass [8]; [15]) was 10. For the same compound, the “Plant response rating, Blackgrass” value (blackgrass [8]; [14]) was 0, the “Plant response rating, Blackgrass” value (blackgrass [8]; Postemergence, 62 g ai/ha) was 5 and the “Plant response rating, Velvetleaf” value (velvetleaf) was 70. The “Soybean plant response rating” value (soybean; [10]) was 30, the “Soybean plant response rating” value (soybean; [11]) was 80 and the “Soybean plant response rating” value (soybean; [12]) was 95. The “Plant response rating, Soybean” value (soybean) was 60, the “Morningglory plant response rating” value (morningglory; [10]) was 20 and the “Morningglory plant response rating” value (morningglory; [11]) was 85. For the same compound, the “Morningglory plant response rating” value (morningglory; [12]) was 100, the “Plant response rating, Morningglory” value (morningglory) was 45 and the “Barnyardgrass plant response rating” value (barnyardgrass [9]; [10]) was 5. The “Barnyardgrass plant response rating” value (barnyardgrass [9]; [11]) was 90, the “Barnyardgrass plant response rating” value (barnyardgrass [9]; [12]) was 100 and the “Plant response rating, Barnyardgrass” value (barnyardgrass [9]) was 55. For the same compound, the “Plant response rating, Foxtail, Giant” value (giant foxtail) was 100 and the “Foxtail, Giant plant response rating” value (giant foxtail) was 100.
